From ChEMBL document CHEMBL1138972, “Discovery of potent CRTh2 (DP2) receptor antagonists” (Bioorg Med Chem Lett, 2006)
Active and inactive are the calls of the source. No cut-off for these calls is given here.

Key:
Homo sapiens = species: Homo sapiens; experiment: Protein binding in human plasma; settings: read-out: PPB (converted)
[1] = Bioavailability in dog; format: ADME, organism-based, Canis lupus familiaris; settings: in vivo
[2] = molecular target: T1, Prostaglandin D2 receptor (Homo sapiens) (UniProt Q13258); experiment: Binding affinity to DP1 receptor in HEK293 cells by radioligand binding assay; format: cell-based
T1 sequence (whole entry): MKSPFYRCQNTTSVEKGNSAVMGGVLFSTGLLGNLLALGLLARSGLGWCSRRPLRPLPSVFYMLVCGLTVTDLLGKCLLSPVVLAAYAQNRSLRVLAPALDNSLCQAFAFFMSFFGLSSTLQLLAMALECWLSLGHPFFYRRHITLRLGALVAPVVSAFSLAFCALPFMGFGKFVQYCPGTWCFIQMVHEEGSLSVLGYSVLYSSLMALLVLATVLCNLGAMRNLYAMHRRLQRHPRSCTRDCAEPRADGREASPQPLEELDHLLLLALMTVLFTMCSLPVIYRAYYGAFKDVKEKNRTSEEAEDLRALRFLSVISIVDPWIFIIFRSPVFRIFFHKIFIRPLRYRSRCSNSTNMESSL

[3] = molecular target: T2, Prostaglandin D2 receptor 2 (Homo sapiens) (UniProt Q9Y5Y4); experiment: Agonist activity at CRTh2 receptor; format: functional
T2 sequence (whole entry): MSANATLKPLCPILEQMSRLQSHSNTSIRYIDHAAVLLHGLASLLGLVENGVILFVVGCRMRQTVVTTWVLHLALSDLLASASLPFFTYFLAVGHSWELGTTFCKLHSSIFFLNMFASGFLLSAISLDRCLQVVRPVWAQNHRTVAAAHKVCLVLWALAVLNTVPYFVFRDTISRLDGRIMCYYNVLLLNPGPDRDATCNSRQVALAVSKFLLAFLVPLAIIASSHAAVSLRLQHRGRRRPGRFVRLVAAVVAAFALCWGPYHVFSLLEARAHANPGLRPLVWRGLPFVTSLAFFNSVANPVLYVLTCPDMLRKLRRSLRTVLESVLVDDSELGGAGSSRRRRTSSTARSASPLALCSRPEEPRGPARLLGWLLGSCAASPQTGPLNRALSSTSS

physchem = settings: buffer, pH 7.4
Description: Lipophilicity, LogD at pH 7.4

[4] = molecular target: Voltage-gated inwardly rectifying potassium channel KCNH2 (Homo sapiens, UniProt Q12809); experiment: Binding affinity to hERG in HEK293 cells by radioligand binding assay; format: cell-based
Voltage-gated inwardly rectifying potassium channel KCNH2, sequence (Q12809 whole entry): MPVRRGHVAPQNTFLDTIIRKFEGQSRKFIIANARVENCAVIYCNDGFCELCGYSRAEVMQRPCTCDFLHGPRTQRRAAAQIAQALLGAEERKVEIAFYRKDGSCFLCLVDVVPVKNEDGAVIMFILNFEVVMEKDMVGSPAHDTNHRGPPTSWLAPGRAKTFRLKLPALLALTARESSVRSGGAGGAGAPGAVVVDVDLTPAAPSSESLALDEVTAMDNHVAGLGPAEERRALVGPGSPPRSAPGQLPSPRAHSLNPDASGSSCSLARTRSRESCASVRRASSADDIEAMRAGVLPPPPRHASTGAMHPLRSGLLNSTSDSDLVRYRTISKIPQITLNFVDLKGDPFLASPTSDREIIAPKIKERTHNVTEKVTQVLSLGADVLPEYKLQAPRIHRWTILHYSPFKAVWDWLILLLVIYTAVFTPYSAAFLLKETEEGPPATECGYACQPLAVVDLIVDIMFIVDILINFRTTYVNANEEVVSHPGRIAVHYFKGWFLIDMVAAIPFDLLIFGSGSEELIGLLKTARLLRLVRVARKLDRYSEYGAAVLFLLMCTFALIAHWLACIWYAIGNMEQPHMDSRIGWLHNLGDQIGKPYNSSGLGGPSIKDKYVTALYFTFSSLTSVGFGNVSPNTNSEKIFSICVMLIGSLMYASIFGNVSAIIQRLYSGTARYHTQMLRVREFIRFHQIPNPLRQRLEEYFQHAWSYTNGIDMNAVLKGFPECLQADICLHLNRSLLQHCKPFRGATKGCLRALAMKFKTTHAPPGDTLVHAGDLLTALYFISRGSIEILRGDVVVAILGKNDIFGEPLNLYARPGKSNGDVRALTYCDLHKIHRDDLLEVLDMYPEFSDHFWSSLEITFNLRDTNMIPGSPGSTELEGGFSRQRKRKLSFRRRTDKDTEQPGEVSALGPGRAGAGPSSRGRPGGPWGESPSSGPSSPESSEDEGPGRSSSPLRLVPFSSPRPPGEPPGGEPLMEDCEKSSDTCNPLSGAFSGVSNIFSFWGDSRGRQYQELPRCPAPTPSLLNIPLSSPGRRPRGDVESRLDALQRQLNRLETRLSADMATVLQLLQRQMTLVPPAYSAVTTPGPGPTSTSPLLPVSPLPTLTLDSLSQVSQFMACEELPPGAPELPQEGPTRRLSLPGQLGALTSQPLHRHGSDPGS

[5] = molecular target: T3, Prostaglandin D2 receptor 2 (Homo sapiens, UniProt Q9Y5Y4); experiment: Displacement of [3H]PGD2 from human CRTh2 expressed in HEK293 cells; format: cell-based
T3 sequence (Q9Y5Y4 whole entry): T2 sequence (whole entry)

[6] = molecular target: T2, Prostaglandin D2 receptor 2 (Homo sapiens); experiment: Activity at CRTh2 measured as calcium flux changes in HEK293 cells by FLIPR; format: functional, cell-based
[7] = Intrinsic clearance in rat hepatocytes per 10^6 cells
[8] = Intrinsic clearance in human hepatocytes per 10^6 cells
[9] = (§1) Volume of distribution in rat; format: ADME, organism-based; settings: in vivo, read-out: Vss
[10] = molecular target: Prostaglandin G/H synthase 1 (Homo sapiens, UniProt P23219); experiment: Inhibition of COX1
Prostaglandin G/H synthase 1, sequence (P23219 whole entry): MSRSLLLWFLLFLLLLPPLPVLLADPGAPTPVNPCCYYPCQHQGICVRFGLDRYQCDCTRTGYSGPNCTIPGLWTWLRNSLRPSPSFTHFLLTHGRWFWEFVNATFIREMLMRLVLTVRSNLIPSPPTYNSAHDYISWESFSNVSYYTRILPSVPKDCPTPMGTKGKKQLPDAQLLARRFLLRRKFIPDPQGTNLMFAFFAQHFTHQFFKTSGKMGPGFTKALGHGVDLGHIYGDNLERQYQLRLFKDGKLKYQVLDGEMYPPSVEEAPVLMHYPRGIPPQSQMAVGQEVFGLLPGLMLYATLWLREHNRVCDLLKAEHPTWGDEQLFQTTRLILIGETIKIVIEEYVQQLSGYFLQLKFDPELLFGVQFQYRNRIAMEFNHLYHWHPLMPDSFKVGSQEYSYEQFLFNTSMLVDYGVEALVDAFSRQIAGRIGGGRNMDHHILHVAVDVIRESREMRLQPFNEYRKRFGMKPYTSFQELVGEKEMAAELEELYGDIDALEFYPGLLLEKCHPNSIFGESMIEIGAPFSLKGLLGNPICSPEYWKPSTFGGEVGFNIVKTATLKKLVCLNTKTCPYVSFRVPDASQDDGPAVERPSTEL

[11] = Protein binding in rat plasma; format: ADME, cell-free; settings: read-out: PPB (converted)
[12] = Clearance in rat; format: ADME, organism-based; settings: in vivo
[13] = (§2) Half life in rat; format: ADME, organism-based; settings: in vivo
[14] = Half life in dog; format: ADME, organism-based, Canis lupus familiaris; settings: in vivo
Cytochrome P450 2C19 = Cytochrome P450 2C19 (Homo sapiens, UniProt P33261); experiment: Inhibition at recombinant human CYP2C19; format: ADME
Cytochrome P450 2C19, sequence (P33261 whole entry): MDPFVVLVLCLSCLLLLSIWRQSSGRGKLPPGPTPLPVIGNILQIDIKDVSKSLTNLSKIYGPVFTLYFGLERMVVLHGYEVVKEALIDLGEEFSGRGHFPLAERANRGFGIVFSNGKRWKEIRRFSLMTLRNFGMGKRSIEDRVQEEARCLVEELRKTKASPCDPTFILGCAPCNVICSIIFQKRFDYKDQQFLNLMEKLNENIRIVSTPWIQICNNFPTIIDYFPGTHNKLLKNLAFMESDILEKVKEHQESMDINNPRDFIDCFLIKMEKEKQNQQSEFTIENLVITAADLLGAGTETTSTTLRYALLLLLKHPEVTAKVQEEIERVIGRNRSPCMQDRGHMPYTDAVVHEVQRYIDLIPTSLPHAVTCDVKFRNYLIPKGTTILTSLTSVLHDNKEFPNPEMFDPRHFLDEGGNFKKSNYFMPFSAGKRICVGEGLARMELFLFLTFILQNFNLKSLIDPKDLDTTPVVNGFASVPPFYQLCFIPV

[15] = Bioavailability in rat; format: ADME, organism-based; settings: in vivo
Rattus norvegicus [16] = species: Rattus norvegicus; experiment: as §1; format: ADME, organism-based; settings: in vivo
[17] = molecular target: Aldo-keto reductase family 1 member B1 (Rattus norvegicus, UniProt P07943); experiment: Inhibition at rat aldose reductase
[18] = Clearance in dog; format: ADME, organism-based, Canis lupus familiaris; settings: in vivo
[19] = molecular target: Sodium-dependent serotonin transporter (Rattus norvegicus, UniProt P31652); experiment: Inhibition at rat serotonin transporter
Sodium-dependent serotonin transporter, sequence (P31652 whole entry): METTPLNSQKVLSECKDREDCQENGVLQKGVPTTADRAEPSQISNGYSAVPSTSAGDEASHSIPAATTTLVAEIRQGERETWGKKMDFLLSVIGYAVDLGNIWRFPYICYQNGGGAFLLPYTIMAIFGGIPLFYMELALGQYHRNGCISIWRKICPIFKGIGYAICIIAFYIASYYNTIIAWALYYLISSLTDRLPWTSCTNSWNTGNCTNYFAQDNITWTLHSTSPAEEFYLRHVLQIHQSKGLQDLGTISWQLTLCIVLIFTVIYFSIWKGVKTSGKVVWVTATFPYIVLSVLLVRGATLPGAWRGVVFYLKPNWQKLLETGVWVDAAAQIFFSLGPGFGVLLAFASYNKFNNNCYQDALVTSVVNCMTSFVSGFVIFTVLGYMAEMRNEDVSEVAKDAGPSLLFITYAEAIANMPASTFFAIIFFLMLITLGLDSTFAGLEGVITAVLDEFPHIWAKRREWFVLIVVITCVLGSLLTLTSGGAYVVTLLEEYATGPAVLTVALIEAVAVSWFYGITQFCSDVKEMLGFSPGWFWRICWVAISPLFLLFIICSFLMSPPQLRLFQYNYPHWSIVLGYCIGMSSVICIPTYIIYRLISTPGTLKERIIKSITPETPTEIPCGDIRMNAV

[20] = molecular target: T4, Prostaglandin G/H synthase 2 (Homo sapiens, UniProt P35354); experiment: Inhibition of COX2
T4 sequence (P35354 whole entry): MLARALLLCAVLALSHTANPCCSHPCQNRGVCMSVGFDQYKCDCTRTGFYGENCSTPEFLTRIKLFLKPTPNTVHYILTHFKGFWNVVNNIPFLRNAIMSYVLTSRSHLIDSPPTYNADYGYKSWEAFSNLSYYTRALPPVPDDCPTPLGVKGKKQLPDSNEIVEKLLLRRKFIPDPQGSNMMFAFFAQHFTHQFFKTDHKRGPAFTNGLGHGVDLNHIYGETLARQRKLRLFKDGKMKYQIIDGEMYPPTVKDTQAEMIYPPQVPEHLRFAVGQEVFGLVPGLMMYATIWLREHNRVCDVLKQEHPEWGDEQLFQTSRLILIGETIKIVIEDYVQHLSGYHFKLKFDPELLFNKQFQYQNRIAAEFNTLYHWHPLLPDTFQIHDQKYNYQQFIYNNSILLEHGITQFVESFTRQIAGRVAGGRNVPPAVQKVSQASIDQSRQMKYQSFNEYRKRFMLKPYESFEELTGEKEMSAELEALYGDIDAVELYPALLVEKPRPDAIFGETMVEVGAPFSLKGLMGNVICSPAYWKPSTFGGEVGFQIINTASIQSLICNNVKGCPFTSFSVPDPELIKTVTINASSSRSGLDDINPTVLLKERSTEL

[21] = Volume of distribution in dog; format: ADME, organism-based, Canis lupus familiaris; settings: in vivo, read-out: Vss
Rattus norvegicus [22] = species: Rattus norvegicus; experiment: as §2; format: ADME, organism-based; settings: in vivo
Cytochrome P450 2C9 = Cytochrome P450 2C9 (Homo sapiens, UniProt P11712); experiment: Inhibition at CYP2C9; format: ADME
Cytochrome P450 2C9, sequence (P11712 whole entry): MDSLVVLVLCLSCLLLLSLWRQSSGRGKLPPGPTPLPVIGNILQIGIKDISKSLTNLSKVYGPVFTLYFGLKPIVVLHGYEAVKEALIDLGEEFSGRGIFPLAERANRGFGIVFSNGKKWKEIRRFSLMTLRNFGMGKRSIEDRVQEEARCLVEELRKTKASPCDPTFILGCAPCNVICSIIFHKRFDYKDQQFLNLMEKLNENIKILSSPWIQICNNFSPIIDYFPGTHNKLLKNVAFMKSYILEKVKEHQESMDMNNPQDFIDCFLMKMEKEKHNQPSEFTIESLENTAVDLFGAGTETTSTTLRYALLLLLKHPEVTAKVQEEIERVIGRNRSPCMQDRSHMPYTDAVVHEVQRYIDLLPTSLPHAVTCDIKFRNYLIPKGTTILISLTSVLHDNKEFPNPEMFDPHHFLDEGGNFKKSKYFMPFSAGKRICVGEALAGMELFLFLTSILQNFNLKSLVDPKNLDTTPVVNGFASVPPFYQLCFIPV

Structure (SMILES) | fraction unbound (Homo sapiens) | Activity [2] | Activity [3] | logD (physchem) | Activity [4] | IC50 [5] | hepatocyte CLint [7] | hepatocyte CLint [8] | other results
Cc1ccc2c(c1)c(-c1ccnc3c(S(C)(=O)=O)cccc13)c(C)n2CC(=O)O | 0.064 | > 6 µM | inactive | 0.3 | > 6 µM | 23 nM |  |  | bioavailability [1]: 5%
Cc1ccc2c(-c3ccnc4cc(Cl)ccc34)c(C)n(CC(=O)O)c2c1 |  | > 6 µM | inactive |  | > 6 µM | 125 nM |  |  | 
Cc1c(CC(=O)O)c2ccccc2n1-c1ccncn1 |  | > 6 µM | inactive |  | > 6 µM | 5200 nM |  |  | Activity ([6]; filed as partial agonist): Partial agonist
Cc1ccc2c(c1)c(-c1ccnc3c(C#N)cccc13)c(C)n2CC(=O)O |  | > 6 µM | inactive |  | > 6 µM | 18 nM | < 3 µL/min/1e6 cells |  | 
Cc1ccc2c(c1)c(-c1cc(C)nc3ccccc13)c(C)n2CC(=O)O | 0.004 | > 6 µM | inactive | 2.9 | > 6 µM | 18 nM | 5 µL/min/1e6 cells |  | 
Cc1ccc2c(c1)c(-c1ccnc3c(F)cccc13)c(C)n2CC(=O)O | 0.009 | > 6 µM | inactive | 0.5 | > 6 µM | 7.1 nM | < 1 µL/min/1e6 cells | 1.6 µL/min/1e6 cells | 
Cc1ccc2c(c1)c(-c1ccnc3cc(Cl)ccc13)c(C)n2CC(=O)O | 0.002 | > 6 µM | inactive | 1.6 | > 6 µM | 8 nM | 6 µL/min/1e6 cells | 3.8 µL/min/1e6 cells | Vd [9]: 1.4 L/kg; IC50 [10]: 400 nM; fraction unbound [11]: 0.02; clearance [12]: 6 mL/min/kg; half-life [13]: 6.7 h
COc1cccc2c(-c3c(C)n(CC(=O)O)c4ccc(C)cc34)ccnc12 |  | > 6 µM | inactive | 0.5 | > 6 µM | 11 nM | 7 µL/min/1e6 cells |  | bioavailability [1]: 13%
Cc1ccc2c(c1)c(-c1ccnc3ccccc13)c(C)n2CC(=O)O |  | > 6 µM | inactive |  | > 6 µM | 21 nM | 10.7 µL/min/1e6 cells | 3 µL/min/1e6 cells | 
Cc1ccc2c(c1)c(-c1ccnc3c(Cl)cccc13)c(C)n2CC(=O)O | 0.006 | > 6 µM | inactive | 1.3 | > 6 µM | 2.3 nM | < 3 µL/min/1e6 cells | 2 µL/min/1e6 cells | half-life [14]: 2.4 h
COc1ccc2c(c1)c(-c1ccnc3cc(Cl)ccc13)c(C)n2CC(=O)O | 0.003 | > 6 µM | inactive |  | > 6 µM | 50 nM | 5 µL/min/1e6 cells |  | 
Cc1ccc2c(c1)c(-c1ccnc3c(C(F)(F)F)cccc13)c(C)n2CC(=O)O | 0.004 | > 6 µM | inactive | 1.3 | > 6 µM | 6 nM |  |  | 
COc1ccc2c(c1)c(CC(=O)O)c(C)n2-c1ccnc2cc(Cl)ccc12 |  | > 6 µM | inactive | 1.7 | > 6 µM | 180 nM | 6.5 µL/min/1e6 cells | 1.4 µL/min/1e6 cells | Vd [9]: 2.3 L/kg; Activity ([6]; filed as antagonist): Antagonist; IC50 (Cytochrome P450 2C19): 1600 nM; clearance [12]: 11 mL/min/kg; bioavailability [15]: 62%; half-life [13]: 2.2 h
Cc1ccc2c(c1)c(-c1ccnc3cc(C(F)(F)F)ccc13)c(C)n2CC(=O)O | 0.004 | > 6 µM | inactive | 1.8 | > 6 µM | 5.4 nM |  |  | 
Cc1ccc2c(c1)c(-c1ccnc3ccc(C(F)(F)F)cc13)c(C)n2CC(=O)O |  | > 6 µM | inactive | 1.8 | > 6 µM | 68 nM | 16 µL/min/1e6 cells |  | 
Cc1ccc2c(c1)c(-c1ccnc3c(C)cccc13)c(C)n2CC(=O)O |  | > 6 µM | inactive |  | > 6 µM | 2.6 nM | 5.5 µL/min/1e6 cells | 1.9 µL/min/1e6 cells | Vss (Rattus norvegicus [16]): 1.4 L/kg; bioavailability [1]: 100%; IC50 [17]: 150 nM; IC50 [10]: 3000 nM; half-life [14]: 5.3 h; clearance [18]: 1 mL/min/kg; fraction unbound [11]: 0.02; IC50 [19]: 2000 nM; IC50 [20]: 3000 nM; IC50 (Cytochrome P450 2C19): 2500 nM; bioavailability [15]: 76%; Vd [21]: 0.2 L/kg; T1/2 (Rattus norvegicus [22]): 1.7 h; IC50 (Cytochrome P450 2C9): 5000 nM
